Assay results: PMC2812926 (Journal of medicinal chemistry, 2008)

How the values were obtained:
HIV-1MDR-TM = type: cell-based; details: PHA-PBMC
HIV-1MDR-MM = type: cell-based; details: PHA-PBMC
HIV-1MDR-JSL = type: cell-based; details: PHA-PBMC
HIV-1MDR-B = type: cell-based; details: PHA-PBMC
MDR/C = type: cell-based, HIV-1; details: PHA-PBMC
HIV-1MDR-G = type: cell-based; details: PHA-PBMC
MDR/A = type: cell-based, HIV-1; details: PHA-PBMC
[1] = test system: HIV-1ERS104pre (wild-type); assay: Antiviral assay in PHA-PBMC, p24 Gag production, HIV-1ERS104pre; type: cell-based; details: PBMC versus MT-2 cells
HIV-1 protease = HIV-1 protease (Human immunodeficiency virus type 1 group M subtype B, UniProt P04585); assay: HIV-1 protease enzyme inhibitory assay; type: biochemical

For `CC(C)(C)NC(=O)[C@@H]1CN(Cc2cccnc2)CCN1C[C@@H](O)C[C@@H](Cc1ccccc1)C(=O)N[C@H]1c2ccccc2C[C@H]1O.O` [IDV, Indinavir], the “number in parentheses: fold change of IC50 versus ERS104pre (wild-type)” value (shortened to “number in parentheses: fold change”) (HIV-1MDR-TM) was > 38, the “number in parentheses: fold change” value (HIV-1MDR-MM) was > 38 and the “number in parentheses: fold change” value (HIV-1MDR-JSL) was > 38. For the same compound, the “number in parentheses: fold change” value (HIV-1MDR-B) was > 38, the “number in parentheses: fold change” value (MDR/C) was > 38 and the “number in parentheses: fold change” value (HIV-1MDR-G) was 11. The “number in parentheses: fold change” value (MDR/A) was > 38.

For `COc1ccc(S(=O)(=O)N(CC(C)C)C[C@@H](O)[C@H](Cc2ccccc2)NC(=O)O[C@@H]2CCOCOC2)cc1` [Inhibitor 3d, (1S,2R)-{1-Benzyl-2-hydroxy-3-[isobutyl(4-methoxybenzenesulfonyl)amino]propyl}carbamic acid (1R)-3,5-dioxacycloheptan-1-yl ester], the “factor by which values in PBMCs were greater than those with MT-2 cells” value [1] was “about 4”.

For `COc1ccc(S(=O)(=O)N(CC(C)C)C[C@@H](O)[C@H](Cc2ccccc2)NC(=O)O[C@@H]2CCCCOC2)cc1` [Inhibitor 3e, (1S,2R)-{1-Benzyl-2-hydroxy-3-[isobutyl(4-methoxybenzenesulfonyl)amino]propyl}carbamic acid (R)-oxepan-3-yl ester], the “reduction in enzymatic inhibitory potency with respect to 3d” value (HIV-1 protease) was ~30 fold.

In the case of `COc1ccc(S(=O)(=O)N(CC(C)C)C[C@@H](O)[C@H](Cc2ccccc2)NC(=O)O[C@H]2CCCOCC2)cc1` [Inhibitor 3f, (1S,2R)-{1-Benzyl-2-hydroxy-3-[isobutyl(4-methoxybenzenesulfonyl)amino]propyl}carbamic acid (S)-oxepan-4-yl ester], the “reduction in enzymatic inhibitory potency with respect to 3d” value (HIV-1 protease) is reported as ~30 fold.

`COc1ccc(S(=O)(=O)N(CC(C)C)C[C@@H](O)[C@H](Cc2ccccc2)NC(=O)OC2COCOC2)cc1` [Inhibitor 3h, (1S,2R)-{1-Benzyl-2-hydroxy-3-[isobutyl(4-methoxybenzenesulfonyl)amino]propyl}carbamic acid 1,3-dioxan-5-yl ester] was tested, and the “number in parentheses: fold change” value (HIV-1MDR-TM) was 10, the “number in parentheses: fold change” value (HIV-1MDR-MM) was 5 and the “number in parentheses: fold change” value (HIV-1MDR-JSL) was 55. For the same compound, the “number in parentheses: fold change” value (HIV-1MDR-B) was 38, the “number in parentheses: fold change” value (MDR/C) was 27 and the “number in parentheses: fold change” value (HIV-1MDR-G) was 50. The “number in parentheses: fold change” value (MDR/A) was 2.

`COc1ccc(S(=O)(=O)N(CC(C)C)C[C@@H](O)[C@H](Cc2ccccc2)NC(=O)OC2COCCOCOCCOC2)cc1` [Inhibitor 3k, (1S,2R)-{1-Benzyl-2-hydroxy-3-[isobutyl(4-methoxybenzenesulfonyl)amino]propyl}carbamic acid 3,6,8,11-tetraoxacyclododecan-1-yl ester] was tested, and the “potency change compared to 3i (enzyme Ki)” value (from here on “potency change”) (HIV-1 protease) was “more than 2 fold” and the “potency enhancement compared to inhibitor 3j (enzyme Ki)” value (HIV-1 protease; compared to 3j) was 5 fold.

In the case of `COc1ccc(S(=O)(=O)N(CC(C)C)C[C@@H](O)[C@H](Cc2ccccc2)NC(=O)OC2COCCS(=O)(=O)CCOC2)cc1` [Inhibitor 3l, (1S,2R)-{1-Benzyl-2-hydroxy-3-[isobutyl(4-methoxybenzenesulfonyl)amino]propyl}carbamic acid 3,9-dioxa-6-thiacyclodecan-1-yl 6,6-dioxide ester], the “potency change” value (HIV-1 protease) is reported as 9 fold.

In the case of `COc1ccc(S(=O)(=O)N(CC(C)C)C[C@@H](O)[C@H](Cc2ccccc2)NC(=O)OC2COCCN(C)CCOC2)cc1` [Inhibitor 3m, (1S,2R)-{1-Benzyl-2-hydroxy-3-[isobutyl(4-methoxybenzenesulfonyl)amino]propyl}carbamic acid N-methyl-1,7-dioxa-4-azocyclodecan-9-yl ester], the “potency change” value (HIV-1 protease) is reported as “no change in inhibitory activity”.

In the case of `CC(C)c1nc(CN(C)C(=O)N[C@H](C(=O)N[C@@H](Cc2ccccc2)C[C@H](O)[C@H](Cc2ccccc2)NC(=O)OCc2cncs2)C(C)C)cs1` [RTV], the “number in parentheses: fold change” value (HIV-1MDR-TM) is reported as > 29, the “number in parentheses: fold change” value (HIV-1MDR-MM) is reported as > 29 and the “number in parentheses: fold change” value (HIV-1MDR-JSL) is reported as > 29. For the same compound, the “number in parentheses: fold change” value (HIV-1MDR-B) was > 29, the “number in parentheses: fold change” value (MDR/C) was > 29 and the “number in parentheses: fold change” value (HIV-1MDR-G) was > 29. For the same compound, the “number in parentheses: fold change” value (MDR/A) was > 29.
